The values that follow come from patent publication US10052387B2, “Ceramide reversal of multi-drug resistance” (Memorial Sloan-Kettering Cancer Center, priority 2013, dated 2018).

The test system of data set [1] is ADX cells. Briefly: Daunorubicin trafficking into the nucleus of ADX cells (confocal microscopy). It is filed as cell-based, Chinese hamster. The settings on record: for percent of ADX cells displaying nuclear daunorubicin: Mean ± 95% CI. As for the experimental part: ADX cells were grown on 4-well slides, 20 uM daunorubicin was added for […], followed by various dose of liposomes containing C16:0 ceramide, sphingomyelin, C16:0 dihydroceramide or phosphatidylcholine for 1 h. Cells were examined under Leica SP-5 inverted confocal microscope. Y axis represents percent of cells with nuclear drug.
ADX cells were grown on 4-well slides. 3.5×10^4 ADX cells were incubated with 20 μM daunorubicin in DMEM HG:F-12 medium without serum. After 2 hours, at which time daunorubicin had reached steady state accumulation in cytoplasmic vesicles, liposomes containing long and very long chain ceramides were added to cells at 0, 1, 2, and 5 μM. After a 1 hour-incubation at 37° C., nuclear localization of daunorubicin was determined by confocal microscopy. Cells were examined under Leica SP-5 inverted confocal microscope. Y axis represents percent of cells with nuclear drug.

In data set [2] the test system is ADX cells. The data set can be described thus: MTT cell survival assay in MDR ADX cells. It is filed as cell-based, Chinese hamster. The settings on record: for enhanced cell kill: ADX MDR cells with daunorubicin; for chemosensitization of ADX cells by sphingomyelinase: exogenous sphingomyelinase, data not shown; for EC50: Cricetulus griseus. The method, then: (§1) A, time course of sphingomyelin changes in DC-3F and ADX cells after B. cereus SMase (0.05 U/mL) treatment. B, time course of ceramide generation. C, DC-3F and ADX cells were treated with increasing doses of B. cereus SMase (0-2 U/mL) and cell survival was measured by MTT (3-(4,5-dimethylthiazol-2-yl)-2,5-diphenyltetrazolium bromide) tetrazolium reduction (MTT) assay. D, Cells were seeded in 96-well plates (2×10^3 cells/well) in a 0.1 ml DME:F12 medium containing 5% FBS and cultured at 37° C. for 24 hours before addition of daunorubicin.
(§2) A, DC-3F and ADX cells were treated with increasing doses of daunorubicin. B, DC-3F and ADX cells were incubated with B. cereus SMase (0.0-0.05 U/ml) and treated with daunorubicin for 1 day. Cell survival was measured by MTT assay. Data are from one representative of three independent studies.
For orientation: Tetrazolium assays rely on reduction of a dye to a coloured formazan, in cell work by metabolically active cells.

The subject of a further data set is DC-3F cells. Briefly: MTT cell survival assay in parental DC-3F cells. It counts as cell-based, Chinese hamster. The method, then: as §1, §2
The subject of another data set is DC-3F tumor. Briefly: DC-3F flank tumor response to doxorubicin. It is filed as in vivo, athymic nude mice. To be noted: 8 mg/kg×3.
The conditions of data set [3]: ×4 doses/25 g mouse; cited from earlier work.
Another data set has as its system ADX tumor. The data set can be described thus: ADX MDR flank tumor response. To be noted: 8 mg/kg×3.
Data set [4] is described as follows: Doxorubicin MTD studies in mice. To be noted: mouse, in vivo, intravenous, 8 mg/kg.
Text: Methods: Liposome Delivery, MTD, PK: Liposomes and free doxorubicin are delivered intravenously and MTD and PK determined in accordance with known protocols.

Experimental for ADX tumor: (§3) Tumors were created in the right flanks of athymic nude mice using 5×10^6 DC-3F cells or ADX cells and at tumor volumes of 100-150 mm^3 were treated with Doxorubicin 8 mg/kg i.v. weekly (arrows) for 3 weeks. Tumor volumes were measured daily according to the formula of Kim et al. (Cancer Res 1986: 46, 1120) for 3 months. Collated data in upper panels represent mean±SEM. Data in lower panels represent individual tumor patterns.
5×10^6 ADX cells were implanted into athymic nude mice by s.c. injection. Treatment was started on day 21 when tumor was 100 mm^3. 8 mg/kg Dox (arrows) was injected i.v. every 7 days followed by 1 μmol/mouse liposomal C16:0 ceramide for a total of 3 treatments (total Dox=24 mg/kg, the MTD in mice). Left panel of A) represents individual tumor growth with Dox alone. Right panel of A) represents tumor response when treated with Dox+1 μmol/mouse liposomal ceramide. Panel B is mean tumor growth response of Dox alone and combined treatment.
ADX flank tumors (in athymic Nude-FoxN1 nu mice) were loaded to isotopic steady state for 1 h by systemic administration of Dox (20 mg/kg), and 1 μmol of C16:0 ceramide containing liposomes/mouse was injected i.v. Mice were sacrificed 1 h thereafter, and tumors snap frozen in OCT at −80° C.
Experimental for DC-3F tumor: as §3

Regarding `CCCCCCCCCCCCC/C=C/[C@@H](O)[C@H](CO)NC(C)=O` [C2:0], the “percent of ADX cells displaying nuclear daunorubicin” value (from here on “percent”) in the data set on ADX cells [1] (ceramide 1 μM) came to 7.5 ± 2.5%; in the data set on ADX cells [1] (ceramide 2 μM), 12.5 ± 3.3%; in the data set on ADX cells [1] (ceramide 5 μM), 7.0 ± 1.6%.

For the molecule `CCCCCCCCCCCCC/C=C/[C@@H](O)[C@H](CO)NC(=O)CCC` [C4:0], the “percent” value came out at 8.0 ± 2.4% in the data set on ADX cells [1] (ceramide 1 μM), 11.9 ± 2.7% in the data set with ADX cells [1] (ceramide 2 μM) and 13.0 ± 2.1% with ADX cells [1] (ceramide 5 μM).

Consider `CCCCCCCCCCCCC/C=C/[C@@H](O)[C@H](CO)NC(=O)CCCCC` [C6:0], for which the “percent” value in the data set on ADX cells [1] (ceramide 1 μM) amounted to 8.8 ± 2.4%; in the data set on ADX cells [1] (ceramide 2 μM) it was 12.2 ± 2.0%; in the data set on ADX cells [1] (ceramide 5 μM), 16.2 ± 2.3%.

Consider `CCCCCCCCCCCCC/C=C/[C@@H](O)[C@H](CO)NC(=O)CCCCCCC` [C8:0], for which the figures for the “percent” value in the data set on ADX cells [1] (ceramide 1 μM), in the data set on ADX cells [1] (ceramide 2 μM) and with ADX cells [1] (ceramide 5 μM) were 11.4 ± 1.9%, 19.8 ± 2.1% and 35.5 ± 2.4%, respectively.

In the case of `CCCCCCCCCCCCC/C=C/[C@@H](O)[C@H](CO)NC(=O)CCCCCCCCC` [C10:0], the “percent” value in the data set with ADX cells [1] (ceramide 1 μM) worked out at 6.8 ± 2.2%; with ADX cells [1] (ceramide 2 μM), 13.1 ± 2.8%; in the data set on ADX cells [1] (ceramide 5 μM), 20.0 ± 2.4%.

For the molecule `CCCCCCCCCCCCC/C=C/[C@@H](O)[C@H](CO)NC(=O)CCCCCCCCCCC` [C12:0], the figures for the “percent” value with ADX cells [1] (ceramide 1 μM), with ADX cells [1] (ceramide 2 μM) and with ADX cells [1] (ceramide 5 μM) were 8.9 ± 3.0%, 18.8 ± 3.2% and 22.3 ± 3.1%, respectively.

`CCCCCCCCCCCCC/C=C/[C@@H](O)[C@H](CO)NC(=O)CCCCCCCCCCCCC` [C14:0]: the “percent” value in the data set on ADX cells [1] (ceramide 1 μM) was found to be 7.4 ± 2.4%; in the data set on ADX cells [1] (ceramide 2 μM), 17.6 ± 3.4%; in the data set with ADX cells [1] (ceramide 5 μM) it was 23.4 ± 3.2%.

With `CCCCCCCCCCCCC/C=C/[C@@H](O)[C@H](CO)NC(=O)CCCCCCCCCCCCCCC` [C16:0, N-palmitoyl (C16:0) ceramide], the enhanced cell kill with ADX cells [2] is given as 25 fold. In addition, in the data set on ADX cells [1] (ADX cells pre-loaded with 20 μM daunorubicin), the “trafficking of daunorubicin into the nucleus” value is recorded as “nuclear transfer occurred only with C16:0 ceramide treatment”. Moreover, the entries for the “percent” value in the data set on ADX cells [1] (ceramide 1 μM), in the data set on ADX cells [1] (ceramide 2 μM) and with ADX cells [1] (ceramide 5 μM) were 13.9 ± 1.7%, 24.3 ± 2.0% and 48.3 ± 2.7%, respectively.

Regarding `N.N.[Cl][Pt][Cl]` [cis-platinum], in the data set with ADX cells [2], the “chemosensitization of ADX cells by sphingomyelinase” value (“chemosensitization of ADX cells” below) is “chemosensitization of ADX cells was also achieved”.

The term EC50 denotes the concentration giving half of the maximal effect. On to `COc1cccc2c1C(=O)c1c(O)c3c(c(O)c1C2=O)C[C@@](O)(C(C)=O)C[C@@H]3O[C@H]1C[C@H](N)[C@H](O)[C@H](C)O1` [daunorubicin], for which the EC50 in the data set on DC-3F cells (Cricetulus griseus, DC3F, parental DC-3F cells) came to 0.8 µM; in the data set on ADX cells [2] (ADX cells treated with increasing doses of exogenous sphingomyelinase) it was 4 µM; in the data set on ADX cells [2] (ADX cells, without sphingomyelinase) it was 92 µM.

For the molecule `COc1cccc2c1C(=O)c1c(O)c3c(c(O)c1C2=O)C[C@@](O)(C(=O)CO)C[C@@H]3O[C@H]1C[C@H](N)[C@H](O)[C@H](C)O1` [doxorubicin], the results for the “tumor response to doxorubicin” value in the data set on DC-3F tumor and in the data set on ADX tumor were “sensitive” and “totally resistant”, respectively. Moreover, the “published MTD” value in data set [3] was “about 9 mg/kg”. This molecule yielded an MTD at 3 weeks in data set [4] of 24 mg/kg.

As for `CN[C@@H]1C[C@H]2O[C@@](C)([C@@H]1OC)n1c3ccccc3c3c4c(c5c6ccccc6n2c5c31)C(=O)NC4` [staurosporine], the “chemosensitization of ADX cells” value with ADX cells [2] was “no sensitization was achieved”.

On to `CC[C@]1(O)C[C@H]2CN(CCc3c([nH]c4ccccc34)[C@@](C(=O)OC)(c3cc4c(cc3OC)N(C=O)[C@H]3[C@@](O)(C(=O)OC)[C@H](OC(C)=O)[C@]5(CC)C=CCN6CC[C@]43[C@@H]65)C2)C1` [vincristine], for which the “chemosensitization of ADX cells” value with ADX cells [2] is “chemosensitization of ADX cells was also achieved”.

B1: sphingomyelinase: exogenous bacterial sphingomyelinase used to generate endogenous ceramide (protein, UniProt P09599 28-333, looked up)
Sphingomyelinase C: DTSTDQNNTLKVMTHNVYMLSTNLYPNWGQSQRADLIGAADYIKNQDVVILNEVFDNSASDRLLGNLKKEYPNQTAVLGRSNGNEWDKTLGSYSSSTPEDGGVAIVSKWPIVEKIQYVFAKGCGPDNLSNKGFVYTKIKKNDRFVHVIGTHLQAEDSMCGKTSPASVRTNQLKEIQDFIKNKNIPNDEYVLFGGDMNVNKINAENNSDSEYASMFKTLHASIPSYTGHTATWDATTNSIAKYNFPDSPAEYLDYIIASKDHANPSFIENKVLQPKSPQWTVTSWLKKYTYDDYSDHYPVAATISMK
Turning to B1, in the data set on DC-3F cells (daunorubicin sensitivity), the “effect of sphingomyelinase treatment on DC-3F cells” value is “unaffected”. Further, in the data set on ADX cells [2], the enhanced cell kill was 25 fold.
